# The supplement of paper PMC11208160
# Experiment: recombinant barcode read abundance after kanamycin selection (control-corrected) (log10(CPM+1)); higher = more efficient recombination; sequences stand for … in AGTGCAGAGAAAATCGGCCAGTTTTCTCTGCCTGCAGTCCGCATGCCGT…AGATTTATGCAGCGGACTGCCTTTCTCCCAAAGTGATAAACCGGACAGTATCATGGACCGGTTTTCCCGGTAATCCGTATTTGCAAGGTTGGTTTCACT; site = the 11-nt target
# Description: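 Pooled E. coli target-specificity screen for the IS621 bridge recombinase. Each library plasmid pairs an 11-nt target (CT core) with a bridge RNA whose target-binding loop (9-nt LTG + 4-nt RTG) is reprogrammed; the rest of the 177-nt WT IS621 bridge RNA scaffold is fixed. The plasmid is co-electroporated with a WT donor plasmid; recombinase is induced with 0.1 mM IPTG and recombinants are selected on kanamycin. Recombinant barcodes are sequenced, converted to CPM, averaged over two biological replicates and corrected by the unselected control CPM. Molecule = full bridge RNA written as DNA: LTG = specificity nt 1-9, RTG = reverse complement of specificity nt 8-11, in the WT scaffold.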
# 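Note: IS621 recombinase and bridge RNA in Escherichia coli cells.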
row,Sequence,recombinant barcode read abundance (log10)
1,AGCTTAGCTTGGGTTCTAACCTGTTGCCG (site AGCTTAGCTAG),0.14
2,AGCTTAGCTTGGGTTCTAACCTGTTGCCG (site AGCTTAGCTCG),0.19
3,AGCTTAGCTTGGGTTCTAACCTGTTGCCG (site AGCTTAGCTGG),0.0372
4,AGCTTAGCTTGGGTTCTAACCTGTTGCCG (site AGCTTAGCTTG),0.188
5,AGGAATTCTTGGGTTCTAACCTGTTGCCT (site AGAAATTCTAG),0.443
6,AGGAATTCTTGGGTTCTAACCTGTTGCCT (site AGCAATTCTAG),0.356
7,AGGAATTCTTGGGTTCTAACCTGTTGCCT (site AGGAATTCTAG),1.59
8,AGGAATTCTTGGGTTCTAACCTGTTGCCT (site AGTAATTCTAG),0
9,AGGACTTCTTGGGTTCTAACCTGTTGCCT (site AGGACTTCTAG),0.618
10,AGGACTTCTTGGGTTCTAACCTGTTGCCT (site AGGATTACTAG),0.704
11,AGGAGCCCTTGGGTTCTAACCTGTTGCTG (site AGGAGCCCTAA),0.0752
12,AGGAGCCCTTGGGTTCTAACCTGTTGCTG (site AGGAGCCCTCA),1.75
13,AGGAGCCCTTGGGTTCTAACCTGTTGCTG (site AGGAGCCCTGA),0.0914
14,AGGAGCCCTTGGGTTCTAACCTGTTGCTG (site AGGAGCCCTTA),0.194
15,AGGAGCTCTTGGGTTCTAACCTGTTGCTA (site AGGAACTCTAA),0.131
16,AGGAGCTCTTGGGTTCTAACCTGTTGCTA (site AGGAGCTCTTA),1.27
17,AGGATAACTTGGGTTCTAACCTGTTGCCT (site AGGATAACTAG),0.655
18,AGGATAACTTGGGTTCTAACCTGTTGCCT (site AGGATACCTAG),0
19,AGGATACCTTGGGTTCTAACCTGTTGCCT (site AGGATAACTAG),0.219
20,AGGATACCTTGGGTTCTAACCTGTTGCCT (site AGGATACCTAG),1.56
21,AGGATATCTTGGGTTCTAACCTGTTGCCT (site AAGATATCTAG),0.114

row,Sequence,recombinant barcode read abundance (log10)
1,AGGATATCTTGGGTTCTAACCTGTTGCCT (site ACGATATCTAG),0.14
2,AGGATATCTTGGGTTCTAACCTGTTGCCT (site AGGATATCTAG),0.559
3,AGGATATCTTGGGTTCTAACCTGTTGCCT (site ATGATATCTAG),0.261
4,AGGATCCCTTGGGTTCTAACCTGTTGCAT (site AGGATCCCTAT),1.99
5,AGGATCCCTTGGGTTCTAACCTGTTGCAT (site AGGATCCCTCT),1.07
6,AGGATTACTTGGGTTCTAACCTGTTGCCT (site AGGACTTCTAG),0.161
7,AGGATTACTTGGGTTCTAACCTGTTGCCT (site AGGATTACTAG),0.641
8,AGGCACTCTTGGGTTCTAACCTGTTGCTG (site AGGCACTCTCA),2.35
9,AGGCACTCTTGGGTTCTAACCTGTTGCTG (site TGGCACTCTAA),0.0921
10,AGGCATCCTTGGGTTCTAACCTGTTGCCT (site AAGCATCCTAG),0.32
11,AGGCATCCTTGGGTTCTAACCTGTTGCCT (site ACGCATCCTAG),0.202
12,AGGCATCCTTGGGTTCTAACCTGTTGCCT (site AGGCATCCTAG),0.147
13,AGGCATCCTTGGGTTCTAACCTGTTGCCT (site ATGCATCCTAG),0.0852
14,AGGCCGCCTTGGGTTCTAACCTGTTGCCG (site AGGCCGCCTCG),1.17
15,AGGCCGCCTTGGGTTCTAACCTGTTGCCG (site AGGCCGGCTCG),0.178
16,AGGGAGACTTGGGTTCTAACCTGTTGCCA (site AGGAAGACTTG),1.63
17,AGGGAGACTTGGGTTCTAACCTGTTGCCA (site AGGCAGACTTG),0.0382
18,AGGGAGACTTGGGTTCTAACCTGTTGCCA (site AGGGAGACTTG),2.49
19,AGGGAGACTTGGGTTCTAACCTGTTGCCA (site AGGTAGACTTG),0.0182
20,AGGGAGACTTGGGTTCTAACCTGTTGCTT (site AGGGAGACTAA),2.39
21,AGGGAGACTTGGGTTCTAACCTGTTGCTT (site AGGGATACTAA),0.25

row,Sequence,recombinant barcode read abundance (log10)
1,AGGGCCTCTTGGGTTCTAACCTGTTGCAG (site AGGGCCTCTCT),2.73
2,AGGGCCTCTTGGGTTCTAACCTGTTGCAG (site GGGGCCTCTTT),0.118
3,AGGGCGCCTTGGGTTCTAACCTGTTGCTT (site AGGGCGCCTAA),1.18
4,AGGGCGCCTTGGGTTCTAACCTGTTGCTT (site CATTTAGCTCC),0.822
5,AGGGGAGCTTGGGTTCTAACCTGTTGCCT (site AGGGAAGCTAG),1.12
6,AGGGGAGCTTGGGTTCTAACCTGTTGCCT (site AGGGCAGCTAG),0.109
7,AGGGGAGCTTGGGTTCTAACCTGTTGCCT (site AGGGGAGCTAG),1.61
8,AGGGGAGCTTGGGTTCTAACCTGTTGCCT (site AGGGTAGCTAG),0.315
9,AGGTAGACTTGGGTTCTAACCTGTTGCTA (site AGGTAGACTTA),2.44
10,AGGTAGACTTGGGTTCTAACCTGTTGCTA (site GGGTACACTTA),0.303
11,AGGTCACCTTGGGTTCTAACCTGTTGCAT (site AGGTCACCTAA),0.129
12,AGGTCACCTTGGGTTCTAACCTGTTGCAT (site AGGTCACCTAC),0.62
13,AGGTCACCTTGGGTTCTAACCTGTTGCAT (site AGGTCACCTAG),0.128
14,AGGTCACCTTGGGTTCTAACCTGTTGCAT (site AGGTCACCTAT),2.12
15,AGGTCCTCTTGGGTTCTAACCTGTTGCTT (site AGGTCCTCTAA),1.13
16,AGGTCCTCTTGGGTTCTAACCTGTTGCTT (site AGGTCCTCTAC),0.715
17,AGGTCCTCTTGGGTTCTAACCTGTTGCTT (site AGGTCCTCTAG),0.954
18,AGGTCCTCTTGGGTTCTAACCTGTTGCTT (site AGGTCCTCTAT),1.2
19,AGGTCGGCTTGGGTTCTAACCTGTTGCCT (site AGATCGGCTAG),0.329
20,AGGTCGGCTTGGGTTCTAACCTGTTGCCT (site AGGTCGGCTAG),1.24
21,AGGTCGTCTTGGGTTCTAACCTGTTGCCT (site AAGTCGTCTAG),0

row,Sequence,recombinant barcode read abundance (log10)
1,AGGTCGTCTTGGGTTCTAACCTGTTGCCT (site ACGTCGTCTAG),0.146
2,AGGTCGTCTTGGGTTCTAACCTGTTGCCT (site AGGTCGTCTAG),1.74
3,AGGTCGTCTTGGGTTCTAACCTGTTGCCT (site ATGTCGTCTAG),0.0512
4,AGGTGCCCTTGGGTTCTAACCTGTTGCCG (site AAGTGCTCTCG),0.235
5,AGGTGCCCTTGGGTTCTAACCTGTTGCCG (site AGGTGCCCTCG),1.15
6,AGGTGTTCTTGGGTTCTAACCTGTTGCCT (site AGGTGTTCTAG),0.716
7,AGGTGTTCTTGGGTTCTAACCTGTTGCCT (site ATGCGTTCTAG),0.018
8,AGTAAGACTTGGGTTCTAACCTGTTGCCT (site AGTAAGACTAA),0.132
9,AGTAAGACTTGGGTTCTAACCTGTTGCCT (site AGTAAGACTAC),0.16
10,AGTAAGACTTGGGTTCTAACCTGTTGCCT (site AGTAAGACTAG),1.69
11,AGTAAGACTTGGGTTCTAACCTGTTGCCT (site AGTAAGACTAT),0.2
12,AGTAAGACTTGGGTTCTAACCTGTTGCTA (site ACTAAGACTCA),0.154
13,AGTAAGACTTGGGTTCTAACCTGTTGCTA (site AGTAAGACTTA),1.23
14,AGTAAGTCTTGGGTTCTAACCTGTTGCCT (site AATAAGTCTAG),0.0805
15,AGTAAGTCTTGGGTTCTAACCTGTTGCCT (site ACTAAGTCTAG),0.186
16,AGTAAGTCTTGGGTTCTAACCTGTTGCCT (site AGTAAGTCTAG),0.61
17,AGTAAGTCTTGGGTTCTAACCTGTTGCCT (site ATTAAGTCTAG),0.0108
18,AGTAATTCTTGGGTTCTAACCTGTTGCCT (site AGAAATTCTAG),0.0418
19,AGTAATTCTTGGGTTCTAACCTGTTGCCT (site AGCAATTCTAG),0.0536
